Laboratory results reported in patent publication US20140142035A1, “METHODS AND COMPOSITIONS FOR MODULATING INSULIN REGULATION” (The Washington University, priority 2010, published 2014).
“Also recorded” adds a separate entry of the source. Where no end group is shown, it is not given here.

What was measured:
[1] = system: perfused rat pancreas; conditions: supraphysiologic concentrations; cited from earlier work
[2] = system: primary mouse islets; test: Insulin release assay (static incubation) with primary mouse islets; format: cell-based; conditions: 100 nM peptide, 60 min, RIA
Experimental: (§1) Primary mouse islets (panel A) or MIN6 cells (panel B) were incubated for 1-h in insulin assay buffer (KRB) containing 2.5 mM glucose. Islets or cells were then switched to KRB containing the indicated concentration of glucose with or without 100 nM GIP, GLP-1, Xenin-8, or Xenin-25. Sixty-minutes later, assay buffer was collected and the amount of insulin released determined by RIA.
as §1, with “islets” for “islets (panel A) or MIN6 cells (panel B)”, “Islets” for “Islets or cells”, “Xenin-8.” for “GIP, GLP-1, Xenin-8, or Xenin-25.”
(§2) Insulin release assays (static incubations) were conducted at the indicated concentration of glucose with islets isolated from WT C57BL/6J mice (Panel A; 5 islets per sample; 6 samples per condition) or Min6 cells (Panels B, C; 4 wells per condition). 100 nM GIP, GLP-1, or Xenin-25 (Xen) was added to some samples in Panels A, B. Peptides were added at the indicated concentrations in Panels C.
Experiments were conducted to determine whether Xenin-25 acts directly on pancreatic islet beta cells (FIG. 23). Islets were isolated from wild type C57BL/6J mice and then subjected to insulin release assays (FIG. 23A) in the presence of different concentrations of glucose. […]

[3] = system: MAPK signaling in Min6 Cells; test: Western blot for phosphorylated (active) MAPK in Min6 cells; format: cell-based; conditions: 10 minutes, 7.5 mM glucose, 100 nM peptide
[4] = system: MIN6 cells; test: Insulin release assay with MIN6 cells; format: cell-based; conditions: for glucose-stimulated insulin release: MIN6 cells, 100 nM peptide, 60 min
Experimental: as §1, §2
Next, studies were performed with MIN6 cells, a well-characterized, glucose-responsive, insulin-producing cell line. First, insulin release assays were conducted in the presence of peptides. […] Second, Min6 cells were treated with GLP-1, GIP, or Xenin-25 and Western blots conducted to determine whether the Xenin-25 increased MAPK signaling. […] Finally, insulin release assays were conducted in the presence of GIP plus Xenin-25.

[5] = system: GIP/DT mice; test: Plasma insulin 5 minutes after i.p. glucose with peptides, GIP/DT mice; format: in vivo, mouse
Experimental: (§3) WT and DT mice were fasted for 16-h (Fast). As indicated, some mice were then administered an intraperitoneal injection of glucose (1 g/kg) with vehicle alone (BSA), GIP alone, Xenin-25 alone (Xen) or GIP plus Xenin-25 (G+X). […] Five minutes after injection of glucose, blood was collected and plasma prepared for insulin assays.
(§4) WT and DT mice were fasted for 16-h (Fast). As indicated, some mice were then administered an intraperitoneal injection of glucose (1 g/kg) with vehicle alone (BSA), GIP alone, Xenin-25 alone (Xen) or GIP plus Xenin-25 (G+X). Five minutes later, blood was collected. Plasma was then prepared and assayed for insulin.
(§5) Activation of parasympathetic neurons that innervate the pancreas can increase glucose-mediated insulin release in vivo. […] Wild type and GIP/DT mice were fasted overnight and then administered glucose in combination with GIP plus Xenin-25 by intraperitoneal injection. […] Blood was collected and plasma prepared 5 minutes after the glucose injection. […] Subsets of parasympathetic neurons that innervate the islets release vasoactive intestinal polypeptide (VIP) and pituitary adenylate cyclase activating peptide (PACAP) when activated. N-terminally truncated forms of PACAP [PACAP(6-38) or PACAP(6-27)] are competitive inhibitors of both VIP receptors (VPAC1 and VPAC2) as well as the PACAP-specific receptor Pac.

[6] = system: WT mice; test: Plasma insulin 5 minutes after i.p. glucose with peptides, wild type mice; format: in vivo, mouse
Experimental: as §3, §4, §5

[7] = system: NONcNZO10/Ltj mice; test: Plasma insulin after i.p. glucose plus peptides in mouse model of human T2DM; format: in vivo; conditions: 8-week old pre-diabetic mice (FIG. 22A); 15 minutes after i.p. glucose 1 g/kg
Experimental: Panel A depicts plasma insulin levels in 8-week old pre-diabetic mice.
NONcNZO10/Ltj mice were fasted for 16-h. Blood was collected before (0) or 15 minutes after an intraperitoneal injection of glucose (1 g/kg) in the presence of vehicle alone (BSA), GIP alone, Xenin-25 alone (Xen) or GIP plus Xenin-25 (GIP+Xen). […] (FIG. 22A).

[8] = system: NONcNZO10/Ltj mice; test: Blood glucose after i.p. glucose plus peptides in mouse model of human T2DM; format: in vivo; conditions: glucose 1 g/kg i.p.
Experimental: Panel A depicts blood glucose levels in 5-week old pre-diabetic mice. Panel B depicts blood glucose levels in 16-week old diabetic mice. Panel C depicts the area under the curve for data in panels A and B as well as for a third experiment using 18-week old mice. * indicates P value<0.05 versus mice of the same age receiving BSA alone.
At the age indicated in FIG. 21, mice were fasted for 16-h. Blood glucose levels were measured before and at the indicated time after an intraperitoneal injection of glucose (1 g/kg) plus vehicle alone (BSA), GIP alone, Xenin-25 alone (Xen) or GIP plus Xenin-25 (GIP+Xen).

Compound: Xenin: xenin protein, form (xenin-25 or fragment) not specified at the place (MLTKFETKSARVKGLSFHPKRPWIL; Xenin; UniProt P53621 1-25, looked up)
- glucose-stimulated insulin release [1]: increased glucose-stimulated insulin release

Compound: glucagon like peptide 1 (HAEGTFTSDVSSYLEGQAAKEFIAWLVKGR; ends and bridges not checked; UniProt P01275 98-127, looked up) [GLP-1, incretin hormone; synthetic GLP-1(7-36) used in vivo]
- glucose-stimulated insulin release [2]: insulin release is potentiated; also recorded: potentiate glucose-stimulated insulin release
- phosphorylation of MAPK [3]: profound increases in phosphorylation of MAPK
- glucose-stimulated insulin release [4]: glucose-stimulated insulin release was amplified; also recorded: potentiate glucose-stimulated insulin release

Compound: PACAP(6-38): N-terminally truncated PACAP; competitive inhibitor of VIP receptors (VPAC1 and VPAC2) and PACAP-specific receptor (FTDSYSRYRKQMAVKKYLAAVLGKRYKQRVKNK; ends and bridges not checked; UniProt P18509 137-169, looked up, fragment)
- inhibition of Xenin-25 potentiation of GIP-mediated increase in plasma insulin ([5]; given along with peptides (FIG. 25C), mouse line not stated): did not inhibit Xenin-25 potentiation of the GIP-mediated increase in plasma insulin levels

Compound: glucose-dependent insulinotropic polypeptide [GIP]
- increase in plasma insulin levels ([6]; WT mice, 5 minutes after i.p. glucose 1 g/kg): greater than 3 fold
- glucose-stimulated insulin release [2]: insulin release is potentiated; also recorded: potentiate glucose-stimulated insulin release
- phosphorylation of MAPK [3]: profound increases in phosphorylation of MAPK
- plasma insulin levels ([5]; GIP/DT mice, 5 minutes after i.p. glucose 1 g/kg): much smaller increase in plasma insulin levels than was observed in WT mice
- plasma insulin levels [7]: little effect on plasma insulin levels
- glucose-stimulated insulin release [4]: glucose-stimulated insulin release was amplified; also recorded: potentiate glucose-stimulated insulin release
- insulin release, GIP with/without Xenin-25 ([4]; Min6 cells, peptides at indicated concentrations (FIG. 23C)): dose-dependent increase in insulin release
- blood glucose levels after i.p. glucose ([8]; 5-week old pre-diabetic mice): does not significantly improve blood glucose levels
- blood glucose levels after i.p. glucose ([8]; 16-week old diabetic mice): modest improvement in blood glucose levels

Compound: CN1[C@@H]2CC[C@H]1C[C@@H](OC(=O)C(CO)c1ccccc1)C2 (stereo partly drawn) [atropine]
- effect on insulin release with GIP plus Xenin-25 ([6]; wild type mice, atropine i.p. 15 minutes before glucose): no statistically significant effect on insulin release
